Like-named read-outs stand apart in the source and are kept apart here. Numbered stars: 1 amine (or outer) side, 2 acyl side, 3 side chain; on linkers, the order of the positions; unused ones are H or OH. Bridge positions count the residues as written; N and C are the ends. Square brackets hold non-standard residues; d marks the D form. Peptide text beside a SMILES is read from it. X3 = O=C(/C=N/OCCCCCCOc1cc(C[*:2])cc(C[*:3])c1)[*:1]; X1 = O=C(C=NOCCCCCCOc1cc(C[*:2])cc(C[*:3])c1)[*:1]; tBuAla = CC(C)(C)C[C@H](N)C(=O)O; Cba = N[C@@H](CC1CCC1)C(=O)O; Nle = CCCC[C@H](N)C(=O)O
Key:
[1] = in vitro; conditions: simulated gi fluid
Procedure: Studies were carried out in simulated intestinal fluid (SIF) to evaluate the intestinal stability of the peptide molecules of the peptides of the instant disclosure. A Fasted State Simulated Intestinal Fluid (FaSSIF) reagent was prepared according to methods known in the art (including addition of the enzyme pancreatin), to which stock peptide solutions were added, incubated, quenched, and analyzed using LCMS/MS.
Percent remaining at each time point was calculated based on the peak area response ratio of test to compound to internal standard. Half-lives were calculated by fitting to a first-order exponential decay equation using GraphPad.

[2] = target: T1, rh-integrin α4β7/LPAM-1 (Homo sapiens, UniProt P13612+P26010); assay: α4β7-MadCAM Competition ELISA (Example 4); assay type: binding; conditions: read-out: IC50
T1 sequence (P13612 34-977 limits assumed): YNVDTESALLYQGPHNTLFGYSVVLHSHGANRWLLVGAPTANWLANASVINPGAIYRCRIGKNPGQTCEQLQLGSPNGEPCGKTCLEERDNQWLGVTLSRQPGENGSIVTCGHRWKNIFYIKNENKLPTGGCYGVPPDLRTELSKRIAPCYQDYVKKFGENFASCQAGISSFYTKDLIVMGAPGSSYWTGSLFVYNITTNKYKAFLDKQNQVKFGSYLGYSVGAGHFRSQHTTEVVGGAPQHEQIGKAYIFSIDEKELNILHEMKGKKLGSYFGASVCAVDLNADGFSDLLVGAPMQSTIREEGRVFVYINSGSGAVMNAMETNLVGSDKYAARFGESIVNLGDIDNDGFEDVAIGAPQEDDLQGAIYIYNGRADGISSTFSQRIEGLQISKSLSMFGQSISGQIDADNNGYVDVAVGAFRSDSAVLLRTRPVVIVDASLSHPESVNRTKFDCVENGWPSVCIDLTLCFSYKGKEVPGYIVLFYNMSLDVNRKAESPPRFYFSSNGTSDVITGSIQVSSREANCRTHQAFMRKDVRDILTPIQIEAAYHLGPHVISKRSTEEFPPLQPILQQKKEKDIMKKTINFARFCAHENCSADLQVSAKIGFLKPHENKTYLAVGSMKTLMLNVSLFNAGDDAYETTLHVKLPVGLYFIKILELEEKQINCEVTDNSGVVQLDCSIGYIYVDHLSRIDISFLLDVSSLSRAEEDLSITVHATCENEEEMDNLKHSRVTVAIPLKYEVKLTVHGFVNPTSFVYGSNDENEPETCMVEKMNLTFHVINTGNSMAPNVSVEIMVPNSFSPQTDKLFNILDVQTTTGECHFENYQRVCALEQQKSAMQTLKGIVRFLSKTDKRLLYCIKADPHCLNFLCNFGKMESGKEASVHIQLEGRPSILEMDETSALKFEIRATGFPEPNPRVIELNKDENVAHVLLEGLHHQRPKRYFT
T1 sequence (P26010 20-723 limits assumed): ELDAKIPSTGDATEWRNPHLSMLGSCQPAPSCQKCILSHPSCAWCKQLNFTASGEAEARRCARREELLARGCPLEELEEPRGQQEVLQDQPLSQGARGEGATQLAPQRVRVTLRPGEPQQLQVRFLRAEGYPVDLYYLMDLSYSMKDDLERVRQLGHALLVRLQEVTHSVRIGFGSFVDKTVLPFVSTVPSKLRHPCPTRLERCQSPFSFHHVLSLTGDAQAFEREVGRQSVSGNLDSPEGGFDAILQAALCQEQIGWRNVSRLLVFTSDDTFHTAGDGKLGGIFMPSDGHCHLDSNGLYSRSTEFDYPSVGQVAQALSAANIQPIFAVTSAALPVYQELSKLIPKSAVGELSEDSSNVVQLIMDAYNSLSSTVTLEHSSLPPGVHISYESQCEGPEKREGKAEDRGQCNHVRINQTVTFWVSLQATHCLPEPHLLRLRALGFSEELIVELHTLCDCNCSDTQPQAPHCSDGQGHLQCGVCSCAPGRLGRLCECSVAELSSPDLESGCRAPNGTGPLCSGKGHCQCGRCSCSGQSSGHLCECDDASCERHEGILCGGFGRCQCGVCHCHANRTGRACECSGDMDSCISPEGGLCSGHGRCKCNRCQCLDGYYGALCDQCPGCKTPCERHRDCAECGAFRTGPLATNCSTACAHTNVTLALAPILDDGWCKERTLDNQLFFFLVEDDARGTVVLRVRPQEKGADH
Procedure: After washing with wash buffer, 200 μL assay buffer was added to each well and incubated for one hour at 28° C. After another wash with wash buffer, 100 μL of a MAdCAM and peptide mixture in assay buffer was added to each well and incubated for one hour at 28° C., followed by washing with wash buffer.

[3] = competition ELISA, 4 μg/mL α4β7 coated, MAdCAM and peptide mixture, 28° C.
[4] = Table 3 Representative compounds, inhibition of MAdCAM binding to coated α4β7

Row | half-life [1] | Structure (SMILES) | IC50 [2, 4] | also measured
1 | 3.45 h | C[C@@H](O)[C@@H]1NC(=O)[C@H](CC(=O)O)NC(=O)[C@@H]2CCCN2C(=O)[C@H](Cc2ccc(O)cc2)NC(=O)[C@@H]2CSCc3cc(cc(c3)OCCCCCCON=CC(=O)N[C@@H](CC(=O)O)C(=O)N2)CSC[C@@H](C(=O)O)NC(=O)[C@H](Cc2c[nH]cn2)NC(=O)[C@H](Cc2ccc(O)cc2)NC1=O [SEQ ID NO. 16] (DCYPDTYHC-OH; linker N-2-9 via X1) | – | –
2 | 1.2 h | CC(C)C[C@@H]1NC(=O)[C@@H]2CSCc3cc(cc(c3)OCCCCCCO/N=C/C(=O)N[C@@H](Cc3ccccc3)C(=O)N2)CSC[C@@H](C(N)=O)NC(=O)[C@H](CO)NC(=O)[C@H](C)NC(=O)[C@H](CCC(=O)O)NC(=O)[C@H](Cc2ccc(O)cc2)NC(=O)CNC1=O [SEQ ID NO: 22] (FCLGYEASC-NH2; linker N-2-9 via X3) | – | –
3 | 0.328 h | CSCC[C@@H]1NC(=O)[C@H](CCCNC(=N)N)NC(=O)CNC(=O)[C@H](Cc2ccc(O)cc2)NC(=O)[C@H](Cc2c[nH]c3ccccc23)NC(=O)[C@H](CCC(N)=O)NC(=O)[C@@H]2CSCc3cc(cc(c3)OCCCCCCON=CC(=O)N[C@@H](C)C(=O)N2)CSC[C@@H](C(=O)O)NC1=O [SEQ ID NO. 21] (ACQWYGRMC-OH; linker N-2-9 via X1) | – | –
4 | 1.07 h | CC(C)C[C@@H]1NC(=O)[C@@H]2CCCN2C(=O)[C@H](Cc2c[nH]c3ccccc23)NC(=O)[C@@H]2CCCN2C(=O)[C@@H]2CSCc3cc(cc(c3)OCCCCCCON=CC(=O)N[C@@H](CCC(=O)O)C(=O)N2)CSC[C@@H](C(=O)O)NC(=O)[C@H](CCC(N)=O)NC(=O)[C@@H]2CCCN2C1=O [SEQ ID NO. 15] (ECPWPLPQC-OH; linker N-2-9 via X1) | – | –
5 | 0.137 h | CSCC[C@@H]1NC(=O)C=NOCCCCCCOc2cc3cc(c2)CSC[C@H](NC1=O)C(=O)N1CCC[C@H]1C(=O)N[C@@H](CC(C)C)C(=O)N[C@@H](Cc1ccc(O)cc1)C(=O)N[C@@H](CCCCN)C(=O)N[C@@H](C(C)C)C(=O)N[C@@H](Cc1c[nH]cn1)C(=O)N[C@H](C(=O)O)CSC3 [SEQ ID NO. 8] (MCPLYKVHC-OH; linker N-2-9 via X1) | – | –
6 | 1.36 h | CC(C)C[C@@H]1NC(=O)[C@@H]2CSCc3cc(cc(c3)OCCCCCCON=CC(=O)N[C@@H](CCCCN)C(=O)N2)CSC[C@@H](C(=O)O)NC(=O)[C@H]([C@@H](C)O)NC(=O)[C@H](CCC(N)=O)NC(=O)[C@H](CCC(=O)O)NC(=O)[C@H](Cc2c[nH]c3ccccc23)NC(=O)CNC1=O [SEQ ID NO. 20] (KCLGWEQTC-OH; linker N-2-9 via X1) | – | –
7 | – | CC[C@H](C)[C@@H]1NC(=O)[C@H](CC(=O)O)NC(=O)[C@H](CCSC)NC(=O)[C@@H]2CCCN2C(=O)[C@@H](NC(=O)[C@H](CCC(N)=O)NC(=O)[C@H](CO)NC(C)=O)CSSC[C@@H](C(=O)O)NC(=O)[C@H]([C@@H](C)O)NC(=O)[C@@H]2CCCN2C1=O [SEQ ID NO: 111] (Ac-SQCPMDIPTC-OH; disulfide 3-10) | – | IC50 [2, 3]: 1700 nM
8 | – | CCCC[C@@H]1NC(=O)[C@@H]2CCCN2C(=O)[C@@H]2CSCc3cc(cc(c3)OCCCCCCO/N=C/C(=O)N[C@@H](CCCNC(=N)N)C(=O)N2)CSC[C@@H](C(N)=O)NC(=O)[C@H](CCC(=O)O)NC(=O)[C@H](Cc2ccc(O)cc2)NC(=O)[C@@H]2CCCN2C(=O)[C@H](CC(C)(C)C)NC(=O)[C@H](CC(=O)O)NC1=O [compound 39, TSL6-SRCP{Nle}D {tBuAla}PYEC] (RCP[Nle]D[tBuAla]PYEC-NH2; linker N-2-10 via X3) | 1130 nM | –
9 | – | CC(C)C[C@@H]1NC(=O)[C@@H]2CCCN2C(=O)[C@@H]2CSCc3cc(cc(c3)OCCCCCCO/N=C/C(=O)N[C@@H](CCCCN)C(=O)N2)CSC[C@@H](C(N)=O)NC(=O)[C@H](CCC(=O)O)NC(=O)[C@H](CCC(N)=O)NC(=O)[C@@H]2CCCN2C(=O)[C@H]([C@@H](C)O)NC(=O)[C@H](CC(=O)O)NC1=O [compound 26, TSL6- SKCPLDTPQEC] (KCPLDTPQEC-NH2; linker N-2-10 via X3) | 602 nM | –
10 | – | CCCC[C@@H]1NC(=O)[C@@H]2CCCN2C(=O)[C@@H]2CSCc3cc(cc(c3)OCCCCCCO/N=C/C(=O)N[C@@H](CCCNC(=N)N)C(=O)N2)CSC[C@@H](C(N)=O)NC(=O)[C@H](CCC(=O)O)NC(=O)[C@H](C)NC(=O)[C@H](C)NC(=O)[C@H]([C@@H](C)CC)NC(=O)[C@H](CC(=O)O)NC1=O [compound 12] (RCP[Nle]DIAAEC-NH2; linker N-2-10 via X3) | 204 nM | –
11 | – | CC[C@H](C)[C@@H]1NC(=O)[C@H](CC(=O)O)NC(=O)[C@H](CCSC)NC(=O)[C@@H]2CCCN2C(=O)[C@@H]2CSCc3cc(cc(c3)OCCCCCCO/N=C/C(=O)N[C@@H](CCCNC(=N)N)C(=O)N2)CSC[C@@H](C(N)=O)NC(=O)[C@H](CCC(=O)O)NC(=O)CNC(=O)[C@H](C)NC1=O [compound 13] (RCPMDIAGEC-NH2; linker N-2-10 via X3) | 227 nM | –
12 | – | CC(C)(C)C[C@@H]1NC(=O)[C@H](CC(=O)O)NC(=O)[C@H](CC2CCC2)NC(=O)[C@@H]2CCCN2C(=O)[C@@H]2CSCc3cc(cc(c3)OCCCCCCON=CC(=O)N[C@@H](CCCNC(=N)N)C(=O)N2)CSC[C@@H](C(=O)O)NC(=O)[C@H](CCC(=O)O)NC(=O)[C@H](CCC(N)=O)NC(=O)[C@H](Cc2c[nH]c3ccccc23)NC1=O [SEQ ID NO: 105] (RCP[Cba]D[tBuAla]WQEC-OH; linker N-2-10 via X1) | – | IC50 [2, 3]: 3890 nM
13 | – | CC[C@H](C)[C@@H]1NC(=O)[C@H](CC(=O)O)NC(=O)[C@H](CCSC)NC(=O)[C@@H]2CCCN2C(=O)[C@@H](NC(=O)[C@H](CCCNC(=N)N)NC(=O)[C@H](CO)NC(C)=O)CSSC[C@@H](C(N)=O)NC(=O)[C@H](CCC(=O)O)NC(=O)CNC(=O)[C@H](C)NC1=O [compound 36] (Ac-SRCPMDIAGEC-NH2; disulfide 3-11) | 932 nM | –
14 | – | C[C@@H]1NC(=O)/C=N/OCCCCCCOc2cc3cc(c2)CSC[C@H](NC1=O)C(=O)N[C@@H](Cc1ccc(O)cc1)C(=O)N1CCC[C@H]1C(=O)N[C@@H](CC(=O)O)C(=O)N[C@@H]([C@@H](C)O)C(=O)N[C@@H](Cc1ccc(O)cc1)C(=O)N[C@@H](Cc1cnc[nH]1)C(=O)N[C@H](C(N)=O)CSC3 [compound 93, TSL6- SACYPDTYHC] (ACYPDTYHC-NH2; linker N-2-9 via X3) | 111000 nM | –
15 | – | CC(C)C[C@@H]1NC(=O)[C@@H]2CCCN2C(=O)[C@@H]2CSCc3cc(cc(c3)OCCCCCCON=CC(=O)N[C@@H](CCCCN)C(=O)N2)CSC[C@@H](C(=O)O)NC(=O)[C@H](CCC(=O)O)NC(=O)[C@H]([C@@H](C)O)NC(=O)[C@@H]2CCCN2C(=O)[C@H]([C@@H](C)O)NC(=O)[C@H](CC(=O)O)NC1=O [SEQ ID NO: 121] (KCPLDTPTEC-OH; linker N-2-10 via X1) | – | IC50 [2, 3]: 748 nM

Row | Structure (SMILES) | half-life [1] | IC50 [2, 4] | also measured
16 | N=C(N)NCCC[C@@H]1NC(=O)CNC(=O)[C@H](Cc2ccc(O)cc2)NC(=O)[C@H](Cc2c[nH]c3ccccc23)NC(=O)[C@H](Cc2c[nH]cn2)NC(=O)[C@@H]2CSCc3cc(cc(c3)OCCCCCCON=CC(=O)N[C@@H](CCC(N)=O)C(=O)N2)CSC[C@@H](C(=O)O)NC(=O)[C@H](CO)NC1=O [SEQ ID NO. 19] (QCHWYGRSC-OH; linker N-2-9 via X1) | > 8 h | – | –
17 | O=C(O)CCCc1ccc(N(CCCl)CCCl)cc1 [Chlorambucil, chlorambucil, reference compound] | 0.627 h | – | –

From patent US20230145835A1, “Modulators of Alpha-4-beta-7 Integrin and MAdCAM” (48HD Biopharma Inc., priority 2021, published 2023)
